Results published in patent publication US20240181049A1, “HARNESSING THE POWER OF MICROBIOTA AND METABOLITES FOR THE TREATMENT OF CANCER” (UTI LIMITED PARTNERSHIP, priority 2019, published 2024).

Key:
[1] = system: A2AR-deficient CD4^+ T cells; assay: A2AR-deficient naive CD4+ T cells with anti-CD3/anti-CD28 coated beads; assay type: cell-based, mice
Experimental: FIG. 16A-16J: Context dependent effect of inosine on Th1 T cell differentiation. (a) Naïve CD4^+ T cells were co-cultured with bone marrow derived dendritic cells without IFN-γ. Quantification of T-bet^+CD3e^+CD4^+ T cells 48 hours after co-culture in the presence or absence of inosine and anti-CTLA-4, as indicated. (b) Naïve CD4^+ T cells were cultured anti-CD3/anti-CD28 coated beads at a ratio of 1:1 without IFN-γ for 48 hours. Representative plot and quantification of IL12Rβ2 surface expression on CD4^+ T cells in the presence or absence of inosine (left and right panel). (c) Quantification of T-bet^+CD3e^+CD4^+ T cells 48 hours after co-culture in the presence or absence of inosine, db-cAMP and anti-CTLA-4 as indicated. […] Quantification of T-bet^+CD3e^+CD4^+ T cells 48 hours after co-culture in the presence or absence of inosine or db-cAMP (e) Representative plot and quantification (left and right panel) of pCREB expression of anti-CD3/anti-CD28 bead co-cultured CD4^+ T cells in the presence or absence of inosine or db-cAMP 1 hour after stimulation. […] Il12rb2 and Ifng gene transcripts (normalized to Gapdh) were evaluated 24 and 48 hours following inosine (1 mM) stimulation. […] Analysis through quantitative PCR assay (h) Naïve CD4^+ T cells were cultured with anti-CD3/anti-CD28 coated beads at a ratio of 1:1 without IFN-γ for 24 hours. […]

T cells in the MLN = assay: Th1 activation in vivo after ovalbumin/CpG immunization; parameters: species or system GF mice; conditions: 300 mg/kg/BW i.p.; vs vehicle
Experimental: FIG. 5A-5L: Inosine promotes Th1 activation and anti-tumor immunity. (a) Schematic overview of experimental setup to assess the effect of inosine on Th1 activation in vivo. (b, c) Representative dot plots and quantification (left and right panel respectively) of T-bet^+IFN-γ^+CD3ε^+ (b) CD8^+ or (c) CD4^+ T cells in the MLN. (d) Schematic overview of experimental setup to assess the effect of inosine on anti-tumor immunity. Upon palpable tumors, mice were treated with 100 μg anti-CTLA-4 i.p. (5 times every 72 hours) and in some groups 20 μg CpG i.p. (5 times every 72 hours). In addition, inosine (300 mg/KG/BW) or PBS was given daily orally (O), through gavage or systemically (S) through i.p. injection. (e) Tumor weight and quantification of IFN-γ^+ cells amongst (f) CD4^+ or (g) CD8^+ cells are shown. (h). Schematic overview to assess the requirement of A2AR signaling for inosine-induced anti-tumor immunity. […] (j) Tumor weight and quantification of IFN-γ^+ in (k) CD8^+ or (l) CD4^+ cells in the tumor are shown. […]
To evaluate the effect of inosine on Th1 activation, mice received 30 μg CpG, […] EndoFit Ovalbumin (both Invivogen) and 2 μg OVA323-339 (Sigma) i.p. and 24 hours later mice received 300 mg/kg/BW inosine or PBS as a control through i.p. injection. T cell differentiation was assessed 48 hours later. […]

## OC[C@H]1O[C@@H](n2cnc3c(O)ncnc32)[C@H](O)[C@@H]1O [inosine]
[1]
  Th1 differentiation and phosphorylation of CREB: absent
T cells in the MLN
  proportions of T-bet+, IFN-γ+ CD8+ and CD4+ T cells in the MLN: increased
